Data from patent publication US20200131196A1 (Mount Tam Therapeutics, Inc., priority 2017, published 2020).

Tests used:
[1] = test system: CEM-C1; experiment: OncoPanel cell proliferation assay, CEM-C1; assay type: cell-based, human
Protocol: (§1) Cells were grown in RPMI 1640, 10% FBS, 2 mM L-alanyl-L-glutamine, 1 mM Na pyruvate, or a special medium. Cells were seeded into 384-well plates and incubated in a humidified atmosphere of 5% CO2 at 37° C. Compounds were added the day following cell seeding. At the same time, a time zero untreated cell plate was generated. After a 3-day incubation period, cells were fixed and stained to allow fluorescence imaging of nuclei. Compounds (1 mM stock solutions) were serially diluted in half-log steps from the highest test concentration ([…]), and assayed over 10 concentrations with a maximum assay concentration of 0.1% DMSO. Automated fluorescence microscopy was carried out using a Molecular Devices ImageXpress Micro XL high-content imager, and images were collected with a 4× objective. 16-bit TIFF images were acquired and analyzed with MetaXpress 5.1.0.41 software.
(§2) Cell proliferation was measured by the fluorescence intensity of an incorporated nuclear dye. The output is referred to as the relative cell count, where the measured nuclear intensity is transformed to percent of control (POC) using the following formula: […]
(§3) Cellular response parameters were calculated using nonlinear regression to a sigmoidal single-site dose response model:
(§4) EC50 is the test compound concentration at the curve inflection point or half the effective response (parameter C of the fitted curve solution). GI50 is the concentration needed to reduce the observed growth by half (midway between the curve maximum and the time zero value). “Cell Count Activity Area” is an estimate of the integrated area above the curve (Barretina, et al. The Cancer Cell Line Encyclopedia enables predictive modelling of anticancer drug sensitivity. Nature 483: 603-607). […] In rare instances, values <0 or >10 may be observed. […] Curve-fitting, calculations, and report generation was performed using a custom data reduction engine and MathIQ based software (AIM).

[2] = test system: CRO-AP2; experiment: OncoPanel cell proliferation assay, CRO-AP2; assay type: cell-based, human
Protocol: as §1, §2, §3, §4

[3] = test system: G-402; experiment: OncoPanel cell proliferation assay, G-402; assay type: cell-based, human
Protocol: as §1, §2, §3, §4

[4] = test system: SHP-77; experiment: OncoPanel cell proliferation assay, SHP-77
Protocol: (§5) Cells were seeded into 384-well plates and incubated in a humidified atmosphere of 5% CO2 at 37° C. Compounds were added the day following cell seeding. At the same time, a time zero untreated cell plate was generated. After a 3-day incubation period, cells were fixed and stained to allow fluorescence imaging of nuclei. Compounds (1 mM stock solutions) were serially diluted in half-log steps from the highest test concentration (1 micromol), and assayed over 10 concentrations with a maximum assay concentration of 0.1% DMSO. Automated fluorescence microscopy was carried out using a Molecular Devices ImageXpress Micro XL high-content imager, and images were collected with a 4× objective. 16-bit TIFF images were acquired and analyzed with MetaXpress 5.1.0.41 software.
(§6) GI50 is the concentration needed to reduce the observed growth by half (midway between the curve maximum and the time zero value). […] In rare instances, values <0 or >10 may be observed. […] Curve-fitting, calculations, and report generation was performed using a custom data reduction engine and MathIQ based software (AIM).

[5] = test system: SK-NEP-1; experiment: OncoPanel cell proliferation assay, SK-NEP-1
Protocol: as §5, §6

[6] = test system: RKOE6; experiment: OncoPanel cell proliferation assay, RKOE6
Protocol: as §5, §6

[7] = Homo sapiens, read-out: Cell Count EC50
[8] = Homo sapiens, read-out: Cell Count GI50
[9] = Homo sapiens, read-out: Cell Count IC50

For CO[C@H]1C[C@@H]2CC[C@@H](C)[C@@](O)(O2)C(=O)C(=O)N2CCCC[C@H]2C(=O)O[C@H]([C@H](C)C[C@H]2C[C@H]3C[C@@H]2C[C@@H]3O)CC(=O)[C@H](C)/C=C(\C)[C@@H](O)[C@@H](OC)C(=O)[C@H](C)C[C@H](C)/C=C/C=C/C=C/1C [Formula II, C37-[(1R,2S,4R,5S)-5-hyhroxybicyclo[2.2.1]heptane] rapamycin], the “Relative cell count (%) Mean” value ([1]; 3.17E-02 microM) was 58.8%, the “Relative cell count (%) Mean” value ([1]; 3.17E-03 microM) was 73.0% and the “Relative cell count (%) Mean” value ([1]; 3.18E-04 microM) was 92.1%. The “Relative cell count (%) Mean” value ([1]; 3.18E-05 microM) was 100.6%, the EC50 [1, 7] was 1.8 nM and the GI50 [1, 8] was 32.5 nM. The IC50 [1, 9] was 265 nM, the “Cell Count Activity Area” value [2] was 4.89 and the “Relative cell count (%) Mean” value ([2]; 1.00E+00 microM) was 24.8%. For the same compound, the “Relative cell count (%) Mean” value ([2]; 1.00E-01 microM) was 27.5%, the “Relative cell count (%) Mean” value ([2]; 1.00E-02 microM) was 34.9% and the “Relative cell count (%) Mean” value ([2]; 1.00E-03 microM) was 65.3%. For the same compound, the “Relative cell count (%) Mean” value ([2]; 1.01E-04 microM) was 100.6%, the “Relative cell count (%) Mean” value ([2]; 3.16E-01 microM) was 24.7% and the “Relative cell count (%) Mean” value ([2]; 3.17E-02 microM) was 27.0%. For the same compound, the “Relative cell count (%) Mean” value ([2]; 3.17E-03 microM) was 47.3%, the “Relative cell count (%) Mean” value ([2]; 3.18E-04 microM) was 81.8% and the “Relative cell count (%) Mean” value ([2]; 3.18E-05 microM) was 98.0%. The EC50 [2, 7] was 1.07 nM, the GI50 [2, 8] was 1.65 nM and the IC50 [2, 9] was 2.21 nM. For the same compound, the “Cell Count Activity Area” value [3] was 4.75, the “Relative cell count (%) Mean” value ([3]; 1.00E+00 microM) was 25.8% and the “Relative cell count (%) Mean” value ([3]; 1.00E-01 microM) was 28.4%. For the same compound, the “Relative cell count (%) Mean” value ([3]; 1.00E-02 microM) was 40.5%, the “Relative cell count (%) Mean” value ([3]; 1.00E-03 microM) was 63.7% and the “Relative cell count (%) Mean” value ([3]; 1.01E-04 microM) was 100.0%. For the same compound, the “Relative cell count (%) Mean” value ([3]; 3.16E-01 microM) was 27.5%, the “Relative cell count (%) Mean” value ([3]; 3.17E-02 microM) was 36.6% and the “Relative cell count (%) Mean” value ([3]; 3.17E-03 microM) was 52.6%. The “Relative cell count (%) Mean” value ([3]; 3.18E-04 microM) was 86.8%, the “Relative cell count (%) Mean” value ([3]; 3.18E-05 microM) was 97.8% and the EC50 [3, 7] was 1.13 nM. For the same compound, the GI50 [3, 8] was 1.51 nM, the IC50 [3, 9] was 2.87 nM and the EC50 ([4]; Homo sapiens, SHP77, read-out: Cell Count EC50) was > 1000 nM. The GI50 ([4]; Homo sapiens, SHP77, read-out: Cell Count GI50) was > 1000 nM, the IC50 ([4]; Homo sapiens, SHP77, read-out: Cell Count IC50) was > 1000 nM and the “Cell Count Activity Area” value ([4]; SHP-77) was 0.76. For the same compound, the “Relative cell count (%) Mean” value ([4]; SHP-77, 1.00E+00 microM) was 67.9%, the “Relative cell count (%) Mean” value ([4]; SHP-77, 1.00E-01 microM) was 79.9% and the “Relative cell count (%) Mean” value ([4]; SHP-77, 1.00E-02 microM) was 96.8%. For the same compound, the “Relative cell count (%) Mean” value ([4]; SHP-77, 1.00E-03 microM) was 96.1%, the “Relative cell count (%) Mean” value ([4]; SHP-77, 1.01E-04 microM) was 95.8% and the “Relative cell count (%) Mean” value ([4]; SHP-77, 3.16E-01 microM) was 75.2%. The “Relative cell count (%) Mean” value ([4]; SHP-77, 3.17E-02 microM) was 88.0%, the “Relative cell count (%) Mean” value ([4]; SHP-77, 3.17E-03 microM) was 92.3% and the “Relative cell count (%) Mean” value ([4]; SHP-77, 3.18E-04 microM) was 90.6%. The “Relative cell count (%) Mean” value ([4]; SHP-77, 3.18E-05 microM) was 98.5%, the EC50 ([5]; Homo sapiens, SK-NEP-1, read-out: Cell Count EC50) was 2.48 nM and the GI50 ([5]; Homo sapiens, SK-NEP-1, read-out: Cell Count GI50) was 3.27 nM. For the same compound, the IC50 ([5]; Homo sapiens, SK-NEP-1, read-out: Cell Count IC50) was 18.1 nM, the “Cell Count Activity Area” value ([5]; SK-NEP-1) was 3.36 and the “Relative cell count (%) Mean” value ([5]; SK-NEP-1, 1.00E+00 microM) was 41.8%. For the same compound, the “Relative cell count (%) Mean” value ([5]; SK-NEP-1, 1.00E-01 microM) was 45.4%, the “Relative cell count (%) Mean” value ([5]; SK-NEP-1, 1.00E-02 microM) was 59.8% and the “Relative cell count (%) Mean” value ([5]; SK-NEP-1, 1.00E-03 microM) was 86.5%. The “Relative cell count (%) Mean” value ([5]; SK-NEP-1, 1.01E-04 microM) was 106.4%, the “Relative cell count (%) Mean” value ([5]; SK-NEP-1, 3.16E-01 microM) was 44.3% and the “Relative cell count (%) Mean” value ([5]; SK-NEP-1, 3.17E-02 microM) was 49.3%. The “Relative cell count (%) Mean” value ([5]; SK-NEP-1, 3.17E-03 microM) was 67.1%, the “Relative cell count (%) Mean” value ([5]; SK-NEP-1, 3.18E-04 microM) was 94.6% and the “Relative cell count (%) Mean” value ([5]; SK-NEP-1, 3.18E-05 microM) was 99.0%. For the same compound, the EC50 ([6]; Homo sapiens, RKOE6, read-out: Cell Count EC50) was 1.13 nM, the GI50 ([6]; Homo sapiens, RKOE6, read-out: Cell Count GI50) was 5.57 nM and the IC50 ([6]; Homo sapiens, RKOE6, read-out: Cell Count IC50) was 14.2 nM. The “Cell Count Activity Area” value ([6]; RKOE6) was 3.66, the “Relative cell count (%) Mean” value ([6]; RKOE6, 1.00E+00 microM) was 40.1% and the “Relative cell count (%) Mean” value ([6]; RKOE6, 1.00E-01 microM) was 43.1%. The “Relative cell count (%) Mean” value ([6]; RKOE6, 1.00E-02 microM) was 52.2%, the “Relative cell count (%) Mean” value ([6]; RKOE6, 1.00E-03 microM) was 64.1% and the “Relative cell count (%) Mean” value ([6]; RKOE6, 1.01E-04 microM) was 94.2%. For the same compound, the “Relative cell count (%) Mean” value ([6]; RKOE6, 3.16E-01 microM) was 43.1%, the “Relative cell count (%) Mean” value ([6]; RKOE6, 3.17E-02 microM) was 49.1% and the “Relative cell count (%) Mean” value ([6]; RKOE6, 3.17E-03 microM) was 65.3%. The “Relative cell count (%) Mean” value ([6]; RKOE6, 3.18E-04 microM) was 84.4% and the “Relative cell count (%) Mean” value ([6]; RKOE6, 3.18E-05 microM) was 98.6%.
